Measurements from US11613525B2 (CTXT PTY LIMITED, priority 2018, dated 2023).
Read-outs that look alike come from different tables or passages of the source.

How the values were obtained:
[1] = target: T1, huSTING (WT) (Homo sapiens (Human), UniProt Q86WV6, H232R); assay: Differential scanning fluorimetry (DSF), huSTING (WT); assay type: binding; conditions: read-out: DSF huSTING (WT) ΔTm (° C.)
Target sequence in this assay (Q86WV6 other isoform, or with tags, fused parts or gaps, stated change not applied): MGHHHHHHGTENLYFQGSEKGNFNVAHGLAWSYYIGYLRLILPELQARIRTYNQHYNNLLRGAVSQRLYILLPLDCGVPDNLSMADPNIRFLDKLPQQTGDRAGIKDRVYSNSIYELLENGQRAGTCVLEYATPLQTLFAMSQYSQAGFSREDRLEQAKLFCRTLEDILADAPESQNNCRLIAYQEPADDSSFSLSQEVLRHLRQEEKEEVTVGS

[2] = target: T2, human STING (HAQ) (Homo sapiens, UniProt Q86WV6, G230A/H232R/R293Q); conditions: read-out: SPR (HAQ) KD; 25° C.
T2 sequence (Q86WV6 whole entry G230A/H232R/R293Q, looked up): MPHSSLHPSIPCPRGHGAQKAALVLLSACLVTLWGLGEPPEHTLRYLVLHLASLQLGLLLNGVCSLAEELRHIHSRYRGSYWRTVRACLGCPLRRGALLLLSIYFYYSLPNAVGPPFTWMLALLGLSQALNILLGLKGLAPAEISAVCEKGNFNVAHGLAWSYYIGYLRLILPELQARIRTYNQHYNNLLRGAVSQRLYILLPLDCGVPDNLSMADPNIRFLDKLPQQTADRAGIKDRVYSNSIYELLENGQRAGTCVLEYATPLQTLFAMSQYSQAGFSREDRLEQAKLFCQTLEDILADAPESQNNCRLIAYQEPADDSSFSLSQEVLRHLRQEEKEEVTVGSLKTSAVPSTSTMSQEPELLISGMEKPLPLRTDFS

[3] = target: huSTING (HAQ) (Homo sapiens (Human), UniProt Q86WV6, G230A/H232R/R293Q/R71H); assay: THP-1 reporter cell line assay, THP-1 STING Lucia ISG cells; assay type: cell-based; conditions: THP-1 STING Lucia ISG cells, read-out: Cellular EC50 huSTING (HAQ)
Sequence of huSTING (HAQ) (Q86WV6 whole entry R71H/G230A/H232R/R293Q): as the sequence (Q86WV6 whole entry G230A/H232R/R293Q, looked up) above, with R71H counted along it

[4] = target: T2, human STING (HAQ); assay: biochemical; assay type: binding
[5] = target: T1, huSTING (WT); assay: THP-1 reporter cell line assay, THP-1-Dual KI-hSTING-R232 cells; assay type: cell-based; conditions: read-out: Cellular EC50 huSTING (WT)
Target sequence in this assay (Q86WV6 whole entry H232R): as the sequence (Q86WV6 whole entry G230A/H232R/R293Q, looked up) above, with A230G, Q293R counted along it

[6] = target: T1, huSTING (WT); assay: SPR (WT) 8° C.; assay type: binding; conditions: read-out: SPR huSTING (WT) KD at 8° C.
Excerpt: (§1) Binding interactions of ligands with STING proteins were quantified using Surface Plasmon Resonance (SPR) with a minimally biotinylated STING protein immobilized on Streptavidin chip surface.
(§2) These were modified for compounds with longer residence times, so that curves could reach steady-state, or so that compound would be fully dissociated before the subsequent injection.
(§3) For single-cycle kinetic experiments, sensorgrams were fit to a two-step kinetic model in which two analyte molecules bind sequentially (Biacore T200 or S200 Evaluation Software).
Target sequence in this assay (Q86WV6 other isoform, or with tags, fused parts or gaps, stated change not applied): as the sequence (Q86WV6 other isoform, or with tags, fused parts or gaps, stated change not applied) above

[7] = target: T2, human STING (HAQ); assay: SPR (HAQ) 8° C.; assay type: binding; conditions: 50% occupancy as surrogate KD, read-out: SPR huSTING (HAQ) KD at 8° C.
Excerpt: as §1, §2, §3

[8] = 1 μM protein, compound at 100 μM
[9] = modified method, top concentration 40 μM, pin tool, EnVision
[10] = compound 100 μM, protein concentration 2 μM

Question: How did the ΔTm at 100 µM [1] turn out when `NC(=O)c1ccc(OCc2c(C(=O)O)sc3cccc(Cl)c23)cn1` [Example 46, 3-(((6-Carbamoylpyridin-3-yl)oxy)methyl)-4-chlorobenzo[b]thiophene-2-carboxylic acid] was run?
Answer: Its ΔTm at 100 µM is 1.77 °C.

Question: What about the Kd [2] of the same compound?
Answer: The Kd was 9.7 µM.

Question: And the EC50 ([3]; 24 h, top concentration 50 μM)?
Answer: Its EC50 is greater than 50 µM.

Question: What about the “DSF huSTING (HAQ) ΔTm (° C.)” value [4, 8] of the same compound?
Answer: Its value is 7.26 °C.

Question: What about the EC50 [5] of the same compound?
Answer: Its EC50 is greater than 50 µM.

Question: For `Nc1noc2cc(OCc3c(C(=O)O)sc4cccc(Cl)c34)ccc12` [Example 48, 3-(((3-Aminobenzo[d]isoxazol-6-yl)oxy)methyl)-4-chlorobenzo[b]thiophene-2-carboxylic acid], which ΔTm at 100 µM [1] is on record?
Answer: The ΔTm at 100 µM was -4.63 °C.

Question: And the Kd [2]?
Answer: The Kd was 16.3 µM.

Question: What about the EC50 ([3]; 24 h, top concentration 50 μM) of the same compound?
Answer: Its EC50 is greater than 50 µM.

Question: What about the “DSF huSTING (HAQ) ΔTm (° C.)” value [4, 8] of the same compound?
Answer: Its value is 1.92 °C.

Question: What about the EC50 [5] of the same compound?
Answer: Its EC50 is greater than 50 µM.

Question: With `NC(=O)c1ccc(OCc2c(C(=O)O)sc3cccc(F)c23)cc1Cl` [Example 50, 3-((4-Carbamoyl-3-chlorophenoxy)methyl)-4-fluorobenzo[b]thiophene-2-carboxylic acid] as the compound, how does the ΔTm at 100 µM [1] read?
Answer: Its ΔTm at 100 µM is 0.02 °C.

Question: What about the Kd [2] of the same compound?
Answer: The Kd was 20.9 µM.

Question: What about the EC50 ([3]; 24 h, top concentration 50 μM) of the same compound?
Answer: The EC50 was greater than 50 µM.

Question: What about the “DSF huSTING (HAQ) ΔTm (° C.)” value [4, 8] of the same compound?
Answer: The value was 5.11 °C.

Question: What about the EC50 [5] of the same compound?
Answer: Its EC50 is greater than 50 µM.

Question: For `NC(=O)c1ccc(OCc2c(C(=O)O)sc3cccc(F)c23)cc1C(F)(F)F` [Example 52, 3-((4-Carbamoyl-3-(trifluoromethyl)phenoxy)methyl)-4-fluorobenzo[b]thiophene-2-carboxylic acid], which ΔTm at 100 µM [1] is on record?
Answer: Its ΔTm at 100 µM is -2.15 °C.

Question: What about the Kd [2] of the same compound?
Answer: Its Kd is 260 µM.

Question: What about the EC50 ([3]; 24 h, top concentration 50 μM) of the same compound?
Answer: Its EC50 is greater than 50 µM.

Question: And the “DSF huSTING (HAQ) ΔTm (° C.)” value [4, 8]?
Answer: Its value is −1.22 °C.

Question: And the EC50 [5]?
Answer: Its EC50 is greater than 50 µM.

Question: What does the source list for `Cc1cc(OCc2c(C(=O)O)sc3cccc(F)c23)ccc1C(N)=O` [Example 54, 3-((4-Carbamoyl-3-methylphenoxy)methyl)-4-fluorobenzo[b]thiophene-2-carboxylic acid]?
Answer: ΔTm at 100 µM [1]: -1.28 °C; Kd [2]: 51 µM; EC50 ([3]; 24 h, top concentration 50 μM): > 50 µM; DSF huSTING (HAQ) ΔTm (° C.) [4, 8]: 2.56 °C; EC50 [5]: > 50 µM

Question: Which results are given for `NC(=O)c1cc(F)c(OCc2c(C(=O)O)sc3cccc(F)c23)c(Br)c1` [Example 56, 3-((2-Bromo-4-carbamoyl-6-fluorophenoxy)methyl)-4-fluorobenzo[b]thiophene-2-carboxylic acid]?
Answer: ΔTm at 100 µM [1]: -1.29 °C; Kd [2]: 29 µM; EC50 ([3]; 24 h, top concentration 50 μM): > 50 µM; DSF huSTING (HAQ) ΔTm (° C.) [4, 8]: 4.48 °C; EC50 [5]: > 50 µM

Question: `NC(=O)c1cc(F)c(OCc2c(C(=O)O)sc3cccc(F)c23)c(F)c1` [Example 57, 3-((4-Carbamoyl-2,6-difluorophenoxy)methyl)-4-fluorobenzo[b]thiophene-2-carboxylic acid] was tested. Which ΔTm at 100 µM [1] did it give?
Answer: The ΔTm at 100 µM was 3.43 °C.

Question: What about the Kd [2] of the same compound?
Answer: Its Kd is 9.05 µM.

Question: What about the EC50 ([3]; 24 h, top concentration 50 μM) of the same compound?
Answer: The EC50 was greater than 50 µM.

Question: What about the “DSF huSTING (HAQ) ΔTm (° C.)” value [4, 8] of the same compound?
Answer: The value was 10.74 °C.

Question: And the EC50 [5]?
Answer: The EC50 was greater than 50 µM.

Question: For `NC(=O)c1ccc(OCc2c(C(=O)O)sc3cccc(F)c23)c(F)c1` [Example 59, 3-((4-carbamoyl-2-fluorophenoxy)methyl)-4-fluorobenzo[b]thiophene-2-carboxylic acid], which ΔTm at 100 µM [1] is on record?
Answer: Its ΔTm at 100 µM is 0.54 °C.

Question: And the Kd [2]?
Answer: The Kd was 15.2 µM.

Question: And the EC50 ([3]; 24 h, top concentration 50 μM)?
Answer: Its EC50 is greater than 50 µM.

Question: And the “DSF huSTING (HAQ) ΔTm (° C.)” value [4, 8]?
Answer: Its value is 7.31 °C.

Question: And the EC50 [5]?
Answer: Its EC50 is greater than 50 µM.

Question: Which results are given for `NC(=O)c1ccc(OCc2c(C(=O)O)sc3cccc(C4CC4)c23)cc1` [Example 61, 3-((4-Carbamoylphenoxy)methyl)-4-cyclopropylbenzo[b]thiophene-2-carboxylic acid]?
Answer: ΔTm at 100 µM [1]: 5.68 °C; Kd [2]: 0.83 µM; EC50 ([3]; 24 h, top concentration 50 μM): 39.6 µM; DSF huSTING (HAQ) ΔTm (° C.) [4, 8]: 14.62 °C; EC50 [5]: > 50 µM

Question: Which ΔTm at 100 µM [1] does the source give for `NC(=O)c1ccc(OCc2c(C(=O)O)sc3cccc(Cl)c23)cc1Br` [Example 64, 3-((3-Bromo-4-carbamoylphenoxy)methyl)-4-chlorobenzo[b]thiophene-2-carboxylic acid] here?
Answer: Its ΔTm at 100 µM is 2.73 °C.

Question: What about the Kd [2] of the same compound?
Answer: Its Kd is 6.2 µM.

Question: What about the EC50 ([3]; 24 h, top concentration 50 μM) of the same compound?
Answer: The EC50 was greater than 50 µM.

Question: And the “DSF huSTING (HAQ) ΔTm (° C.)” value [4, 8]?
Answer: Its value is 6.79 °C.

Question: And the EC50 [5]?
Answer: Its EC50 is greater than 50 µM.

Question: `NC(=O)c1cc(F)c(OCc2c(C(=O)O)sc3cccc(Cl)c23)c(Br)c1` [Example 71, 3-((2-Bromo-4-carbamoyl-6-fluorophenoxy)methyl)-4-chlorobenzo[b]thiophene-2-carboxylic acid] was tested. Which ΔTm at 100 µM [1] did it give?
Answer: Its ΔTm at 100 µM is 5.11 °C.

Question: And the Kd [2]?
Answer: Its Kd is 2.12 µM.

Question: And the EC50 ([3]; 24 h, top concentration 50 μM)?
Answer: Its EC50 is 21.4 µM.

Question: What about the “DSF huSTING (HAQ) ΔTm (° C.)” value [4, 8] of the same compound?
Answer: The value was 12.18 °C.

Question: And the EC50 [5]?
Answer: The EC50 was 40.4 µM.

Question: For `NC(=O)c1ccc(CCc2c(C(=O)O)sc3cccc(F)c23)cc1` [Example 88, 3-(4-Carbamoylphenethyl)-4-fluorobenzo[b]thiophene-2-carboxylic acid], which ΔTm at 100 µM [1] is on record?
Answer: The ΔTm at 100 µM was -1.07 °C.

Question: What about the Kd [2] of the same compound?
Answer: The Kd was 533 µM.

Question: What about the EC50 ([3]; 24 h, top concentration 50 μM) of the same compound?
Answer: The EC50 was greater than 50 µM.

Question: What about the “DSF huSTING (HAQ) ΔTm (° C.)” value [4, 8] of the same compound?
Answer: The value was 0.97 °C.

Question: What about the EC50 [5] of the same compound?
Answer: Its EC50 is greater than 50 µM.

Question: Which EC50 [3, 9] does the source give for `COc1ncnc2sc(C(=O)O)c(COc3c(F)cc(C(N)=O)cc3F)c12` [Example 109, 5-((4-Carbamoyl-2,6-difluorophenoxy)methyl)-4-methoxythieno[2,3-d]pyrimidine-6-carboxylic acid] here?
Answer: Its EC50 is greater than 40 µM.

Question: What about the “DSF huSTING (HAQ) ΔTm (° C.)” value [4, 10] of the same compound?
Answer: The value was 8.60 °C.

Question: And the Kd [6]?
Answer: Its Kd is 200 µM.

Question: And the Kd [7]?
Answer: The Kd was 160 µM.

Question: What about the EC50 [5] of the same compound?
Answer: The EC50 was greater than 40 µM.

Question: For `COCc1cc(OCc2c(C(=O)O)sc3cccc(Cl)c23)ccc1C(N)=O` [Example 113, 3-((4-Carbamoyl-3-(methoxymethyl)phenoxy)methyl)-4-chlorobenzo[b]thiophene-2-carboxylic acid], which EC50 [3, 9] is on record?
Answer: Its EC50 is greater than 40 µM.

Question: And the “DSF huSTING (HAQ) ΔTm (° C.)” value [4, 10]?
Answer: Its value is 5.60 °C.

Question: And the Kd [7]?
Answer: Its Kd is 52 µM.

Question: What about the EC50 [5] of the same compound?
Answer: Its EC50 is greater than 40 µM.

Question: What does the source list for `NC(=O)c1cc(F)c(OCc2c(C(=O)O)sc3cncc(Cl)c23)c(F)c1` [Example 171, Lithium 3-((4-carbamoyl-2,6-difluorophenoxy)methyl)-4-chlorothieno[2,3-c]pyridine-2-carboxylate]?
Answer: EC50 [3, 9]: > 40 µM; DSF huSTING (HAQ) ΔTm (° C.) [4, 10]: 9.33 °C; Kd [7]: 4.87 µM; EC50 [5]: > 40 µM

Question: For `COc1nccc2sc(C(=O)O)c(COc3c(F)cc(C(N)=O)cc3CO)c12` [Example 172, 3-((4-Carbamoyl-2-fluoro-6-(hydroxymethyl)phenoxy)methyl)-4-methoxythieno[3,2-c]pyridine-2-carboxylic acid], which EC50 [3, 9] is on record?
Answer: The EC50 was greater than 40 µM.

Question: And the “DSF huSTING (HAQ) ΔTm (° C.)” value [4, 10]?
Answer: Its value is 0.56 °C.

Question: And the Kd [7]?
Answer: The Kd was 220 µM.

Question: What about the EC50 [5] of the same compound?
Answer: The EC50 was greater than 40 µM.
